Experimental data published in ChEMBL document CHEMBL1151281, “Botcinins A, B, C, and D, metabolites produced by Botrytis cinerea, and their antifungal activity against Magnaporthe grisea, a pathogen of rice blast disease” (2005).
≈ marks a conversion by molar mass, not a printed value. Calls of active or inactive are those of the source. The calls are words filed in the database; no cut-off is given here.

Tests used:
Pyricularia grisea [1] = experiment: Antifungal activity against Magnaporthe grisea IFO 30733 after 3 days; type: functional; conditions: IFO 30733, 72 h
Pyricularia grisea [2] = experiment: Antifungal activity against Magnaporthe grisea IFO 30733 at 800 uM after 3 days; type: functional, organism-based

| Structure (SMILES) | MIC (Pyricularia grisea [1]) | Activity (Pyricularia grisea [2]) |
| --- | --- | --- |
| CCCC[C@H](O)CCC(=O)O[C@@H]1[C@@H](C)[C@@H]2OC(=O)[C@H](C)[C@H](OC(C)=O)[C@@]2(C)O[C@H]1C | 100 µM (≈ 42.9 µg/mL) |  |
| CC(=O)O[C@H]1[C@@H](C)C(=O)O[C@H]2[C@H](C)[C@@H](O)[C@H](C)O[C@@]21C |  | inactive |
| CCCC[C@H](O)/C=C/C(=O)O[C@@H]1[C@@H](C)[C@@H]2OC(=O)[C@H](C)[C@H](OC(C)=O)[C@@]2(C)O[C@H]1C [BOTCININ A] | 100 µM (≈ 42.7 µg/mL) |  |
| CCCCCC[C@H](O)/C=C/C(=O)O[C@@H]1[C@@H](C)[C@@H]2OC(=O)[C@H](C)[C@H](OC(C)=O)[C@@]2(C)O[C@H]1C [BOTCININ B] | 12.5 µM (≈ 5.68 µg/mL) |  |
| CCCCCC[C@H](O)/C=C/C(=O)O[C@@H]1[C@@H](C)[C@@H]2OC(=O)[C@@H](C)[C@H](OC(C)=O)[C@@]2(C)O[C@H]1C [BOTCININ C] | 100 µM (≈ 45.5 µg/mL) |  |
| CCCC[C@H](O)/C=C/C(=O)O[C@@H]1[C@@H](C)[C@@H]2OC(=O)C(C)=C[C@@]2(C)O[C@H]1C [BOTCININ D] | 12.5 µM (≈ 4.58 µg/mL) |  |
